Source: PMC8523698, “Preclinical characterization of an intravenous coronavirus 3CL protease inhibitor for the potential treatment of COVID19” (Nature Communications, 2021)
Several values for one entry are separate records, joined by “and”; a condition that tells them apart may be missing. Equal entries are not always repeated. Where two headings read alike, the source gives them in different places.

How the values were obtained:
[1] = tested on: Salmonella typhimurium strains and E. coli strain WP2 uvrA; test: Bacterial reverse mutation assay; conditions: with and without metabolic activation
[2] = Plasma protein binding by equilibrium dialysis; conditions: dog plasma, 3.44 uM; for fraction unbound at 6 h, 3.44 uM: dog, plasma
CYP1A2 = molecular target: T1, CYP1A2 (Homo sapiens, UniProt P05177); test: Reversible CYP inhibition in human liver microsomes; conditions: for activity at 0.01 µM / activity at 0.158 µM / activity at 0.398 µM / activity at 1 µM / activity at 15.8 µM / activity at 39.8 µM / activity at 100 µM: human, microsomes, pH 7.4, Percent of Control Activity
T1 sequence (P05177 1-516): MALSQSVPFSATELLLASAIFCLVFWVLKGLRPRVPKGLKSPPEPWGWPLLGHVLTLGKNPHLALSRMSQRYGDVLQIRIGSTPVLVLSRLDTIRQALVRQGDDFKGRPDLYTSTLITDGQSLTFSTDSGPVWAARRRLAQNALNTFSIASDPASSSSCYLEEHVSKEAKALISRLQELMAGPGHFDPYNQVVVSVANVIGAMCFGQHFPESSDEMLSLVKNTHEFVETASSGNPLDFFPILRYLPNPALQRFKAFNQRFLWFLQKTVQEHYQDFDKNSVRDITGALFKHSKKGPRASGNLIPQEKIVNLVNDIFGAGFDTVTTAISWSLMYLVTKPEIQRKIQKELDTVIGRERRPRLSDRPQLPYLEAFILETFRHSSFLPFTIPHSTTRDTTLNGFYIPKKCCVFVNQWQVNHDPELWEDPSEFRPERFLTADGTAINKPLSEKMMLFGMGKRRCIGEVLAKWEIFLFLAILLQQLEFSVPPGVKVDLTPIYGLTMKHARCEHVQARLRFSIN

CYP2C8 = molecular target: T2, CYP2C8 (Homo sapiens, UniProt P10632); test: as above; conditions: for activity at 0.01 µM / activity at 0.158 µM / activity at 0.398 µM / activity at 1 µM / activity at 15.8 µM / activity at 39.8 µM / activity at 100 µM: human, microsomes, pH 7.4, Percent of Control Activity
T2 sequence (P10632 1-490): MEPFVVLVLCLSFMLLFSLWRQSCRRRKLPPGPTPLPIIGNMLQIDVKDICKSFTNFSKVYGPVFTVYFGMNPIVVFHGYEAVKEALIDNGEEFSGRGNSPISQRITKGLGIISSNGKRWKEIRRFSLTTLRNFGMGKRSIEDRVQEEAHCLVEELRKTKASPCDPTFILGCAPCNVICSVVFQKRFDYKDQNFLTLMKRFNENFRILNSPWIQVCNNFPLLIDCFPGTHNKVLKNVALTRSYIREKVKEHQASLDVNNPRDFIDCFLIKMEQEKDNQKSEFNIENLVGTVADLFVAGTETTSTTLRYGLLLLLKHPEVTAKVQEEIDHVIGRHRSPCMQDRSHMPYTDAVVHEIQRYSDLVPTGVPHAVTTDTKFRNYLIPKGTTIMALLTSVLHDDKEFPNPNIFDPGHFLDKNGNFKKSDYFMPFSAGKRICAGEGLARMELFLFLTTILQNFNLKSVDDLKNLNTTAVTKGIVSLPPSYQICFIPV

OAT1 = molecular target: T3, OAT1 (Homo sapiens, UniProt Q4U2R8); test: Transporter inhibition using transfected HEK293 cells; conditions: IC50, [3H]PAH (0.5 µM)
T3 sequence (Q4U2R8 1-563): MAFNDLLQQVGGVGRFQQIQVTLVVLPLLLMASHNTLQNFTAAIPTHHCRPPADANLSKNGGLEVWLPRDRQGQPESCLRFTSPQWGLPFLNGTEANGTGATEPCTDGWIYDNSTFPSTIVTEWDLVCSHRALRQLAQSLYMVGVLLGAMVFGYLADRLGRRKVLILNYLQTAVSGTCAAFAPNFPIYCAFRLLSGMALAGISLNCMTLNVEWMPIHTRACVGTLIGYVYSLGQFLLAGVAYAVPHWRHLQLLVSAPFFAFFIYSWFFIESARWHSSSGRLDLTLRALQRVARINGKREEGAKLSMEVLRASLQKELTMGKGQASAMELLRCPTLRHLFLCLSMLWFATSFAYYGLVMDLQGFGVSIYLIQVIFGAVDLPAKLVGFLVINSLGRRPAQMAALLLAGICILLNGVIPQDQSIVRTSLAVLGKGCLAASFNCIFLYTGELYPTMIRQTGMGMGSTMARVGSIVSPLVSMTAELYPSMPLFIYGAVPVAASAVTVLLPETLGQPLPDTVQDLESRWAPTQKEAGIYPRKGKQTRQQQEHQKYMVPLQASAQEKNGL

COc1cccc2[nH]c(C(=O)N[C@@H](CC(C)C)C(=O)N[C@@H](C[C@@H]3CCNC3=O)C(=O)COP(=O)(O)O)cc12 [PF-07304814]
bacterial reverse mutation assay result [1]: negative | fraction unbound at 6 h, 3.44 uM ([2]; both, Beagle, pH 7.4, Individual fraction unbound, Beagle, male and female, Day 1): 0.322 | fraction unbound at 6 h, 3.44 uM ([2]; both, Beagle, pH 7.4, Individual fraction unbound, Beagle, male and female, Day 2): 0.344 | fraction unbound at 6 h, 3.44 uM ([2]; both, Beagle, pH 7.4, Individual fraction unbound, Beagle, male and female, Day 3): 0.303 | Individual fraction unbound ([2]; Beagle, male and female, Day 1): 0.288 and 0.267 and 0.276 | Individual fraction unbound ([2]; Beagle, male and female, Day 2): 0.33 and 0.389 and 0.349 | Individual fraction unbound ([2]; Beagle, male and female, Day 3): 0.301 and 0.285 and 0.313 | fraction unbound at 6 h, 3.44 uM ([2]; pH 7.4, fraction unbound Geomean, n=12): 0.312 | IC50 (CYP1A2): > 100 µM | Percent of Control Activity (CYP1A2; CYP 1A2, 0.01 µM, 30-Minute Preincubation, 0.01 µM): 103.6% and 101.2% | Percent of Control Activity (CYP1A2; CYP 1A2, 0.01 µM, Zero-Minute Preincubation, 0.01 µM): 97.5% | Percent of Control Activity (CYP1A2; CYP 1A2, 0.158 µM, 30-Minute Preincubation, 0.158 µM): 95.4% and 101.9% | Percent of Control Activity (CYP1A2; CYP 1A2, 0.158 µM, Zero-Minute Preincubation, 0.158 µM): 97.0% and 100.9% | Percent of Control Activity (CYP1A2; CYP 1A2, 0.398 µM, 30-Minute Preincubation, 0.398 µM): 101.4% and 101.2% | Percent of Control Activity (CYP1A2; CYP 1A2, 0.398 µM, Zero-Minute Preincubation, 0.398 µM): 96.0% and 97.7% | Percent of Control Activity (CYP1A2; CYP 1A2, 1 µM, 30-Minute Preincubation, 1 µM): 102.8% and 101.6% | Percent of Control Activity (CYP1A2; CYP 1A2, 1 µM, Zero-Minute Preincubation, 1 µM): 94.7% and 96.1% | Percent of Control Activity (CYP1A2; CYP 1A2, 15.8 µM, 30-Minute Preincubation, 15.8 µM): 103.2% | Percent of Control Activity (CYP1A2; CYP 1A2, 39.8 µM, 30-Minute Preincubation, 39.8 µM): 101.7% and 102.7% | Percent of Control Activity (CYP1A2; CYP 1A2, 39.8 µM, Zero-Minute Preincubation, 39.8 µM): 98.4% and 99.6% | Percent of Control Activity (CYP1A2; CYP 1A2, 100 µM, 30-Minute Preincubation, 100 µM): 104.3% and 102.5% | Percent of Control Activity (CYP1A2; CYP 1A2, 100 µM, Zero-Minute Preincubation, 100 µM): 94.4% and 97.1% | IC50 (CYP1A2; Phenacetin O-dealkylation, 30-minute preincubation (T30)): > 100 µM | activity at 0.01 µM (CYP1A2; CYP 1A2, 0.01 µM, 30-Minute Preincubation): 96.7% | activity at 0.01 µM (CYP1A2; CYP 1A2, 0.01 µM, Zero-Minute Preincubation): 100% | activity at 0.158 µM (CYP1A2; CYP 1A2, 0.158 µM, 30-Minute Preincubation): 102% | activity at 0.158 µM (CYP1A2; CYP 1A2, 0.158 µM, Zero-Minute Preincubation): 96.4% | activity at 0.398 µM (CYP1A2; CYP 1A2, 0.398 µM, 30-Minute Preincubation): 102% | activity at 0.398 µM (CYP1A2; CYP 1A2, 0.398 µM, Zero-Minute Preincubation): 98.5% | activity at 1 µM (CYP1A2; CYP 1A2, 1 µM, 30-Minute Preincubation): 100% | activity at 1 µM (CYP1A2; CYP 1A2, 1 µM, Zero-Minute Preincubation): 99.4% | activity at 15.8 µM (CYP1A2; CYP 1A2, 15.8 µM, 30-Minute Preincubation): 102% | activity at 15.8 µM (CYP1A2; CYP 1A2, 15.8 µM, Zero-Minute Preincubation): 100% | activity at 39.8 µM (CYP1A2; CYP 1A2, 39.8 µM, 30-Minute Preincubation): 102% | activity at 39.8 µM (CYP1A2; CYP 1A2, 39.8 µM, Zero-Minute Preincubation): 98.5% | activity at 100 µM (CYP1A2; CYP 1A2, 100 µM, 30-Minute Preincubation): 103% | activity at 100 µM (CYP1A2; CYP 1A2, 100 µM, Zero-Minute Preincubation): 97.8% | IC50 (CYP2C8): > 100 µM | IC50 (CYP2C8; Amodiaquine N-dealkylation, T30): > 100 µM | Percent of Control Activity (CYP2C8; CYP 2C8, 0.01 µM, 30-Minute Preincubation, 0.01 µM): 100.2% | Percent of Control Activity (CYP2C8; CYP 2C8, 0.01 µM, Zero-Minute Preincubation, 0.01 µM): 96.2% and 97.6% | Percent of Control Activity (CYP2C8; CYP 2C8, 0.158 µM, 30-Minute Preincubation, 0.158 µM): 96.6% and 95.8% | Percent of Control Activity (CYP2C8; CYP 2C8, 0.158 µM, Zero-Minute Preincubation, 0.158 µM): 91.2% and 95.2% | Percent of Control Activity (CYP2C8; CYP 2C8, 0.398 µM, 30-Minute Preincubation, 0.398 µM): 95.5% and 95.0% | Percent of Control Activity (CYP2C8; CYP 2C8, 0.398 µM, Zero-Minute Preincubation, 0.398 µM): 94.0% and 94.9% | Percent of Control Activity (CYP2C8; CYP 2C8, 1 µM, 30-Minute Preincubation, 1 µM): 96.0% and 95.0% | Percent of Control Activity (CYP2C8; CYP 2C8, 1 µM, Zero-Minute Preincubation, 1 µM): 93.7% | Percent of Control Activity (CYP2C8; CYP 2C8, 15.8 µM, 30-Minute Preincubation, 15.8 µM): 96.2% and 94.8% | Percent of Control Activity (CYP2C8; CYP 2C8, 15.8 µM, Zero-Minute Preincubation, 15.8 µM): 94.0% and 95.0% | Percent of Control Activity (CYP2C8; CYP 2C8, 39.8 µM, 30-Minute Preincubation, 39.8 µM): 94.8% and 91.6% | Percent of Control Activity (CYP2C8; CYP 2C8, 39.8 µM, Zero-Minute Preincubation, 39.8 µM): 94.6% | Percent of Control Activity (CYP2C8; CYP 2C8, 100 µM, 30-Minute Preincubation, 100 µM): 96.4% | Percent of Control Activity (CYP2C8; CYP 2C8, 100 µM, Zero-Minute Preincubation, 100 µM): 88.3% | activity at 0.01 µM (CYP2C8; CYP 2C8, 0.01 µM, 30-Minute Preincubation): 94.3% | activity at 0.01 µM (CYP2C8; CYP 2C8, 0.01 µM, Zero-Minute Preincubation): 95.1% | activity at 0.158 µM (CYP2C8; CYP 2C8, 0.158 µM, 30-Minute Preincubation): 90.5% | activity at 0.158 µM (CYP2C8; CYP 2C8, 0.158 µM, Zero-Minute Preincubation): 91.3% | activity at 0.398 µM (CYP2C8; CYP 2C8, 0.398 µM, 30-Minute Preincubation): 92.1% | activity at 0.398 µM (CYP2C8; CYP 2C8, 0.398 µM, Zero-Minute Preincubation): 95.4% | activity at 1 µM (CYP2C8; CYP 2C8, 1 µM, 30-Minute Preincubation): 91.8% | activity at 1 µM (CYP2C8; CYP 2C8, 1 µM, Zero-Minute Preincubation): 92.1% | activity at 15.8 µM (CYP2C8; CYP 2C8, 15.8 µM, 30-Minute Preincubation): 88.9% | activity at 15.8 µM (CYP2C8; CYP 2C8, 15.8 µM, Zero-Minute Preincubation): 89.3% | activity at 39.8 µM (CYP2C8; CYP 2C8, 39.8 µM, 30-Minute Preincubation): 88.9% | activity at 39.8 µM (CYP2C8; CYP 2C8, 39.8 µM, Zero-Minute Preincubation): 87% | activity at 100 µM (CYP2C8; CYP 2C8, 100 µM, 30-Minute Preincubation): 89.5% | activity at 100 µM (CYP2C8; CYP 2C8, 100 µM, Zero-Minute Preincubation): 85.6% | IC50 (OAT1): > 300 µM
